Test results as given in US11084805B2, “Compound derived from allulose” (CJ CHEILJEDANG CORPORATION, priority 2019, dated 2021).

Assay: Evaluation of acid resistance of allulose disaccharide (residual percentage by HPLC after storage in citrate buffer)
Format: physicochemical
Details: for Residual percentage: 1% (w/v) in 10 mM citrate buffer
Protocol: 1% D1 solution was prepared (in 10 mM citrate buffer) to measure acid resistance thereof. Sucrose that is a disaccharide having a similar structure and D2 that is another allulose disaccharide were used as controls.
The pH of the solution was adjusted to pH 2.0, 4.0, and 6.0 using 10 mM citrate and sodium citrate buffers. The prepared solutions were respectively stored at room temperature ([…]), and purities of remaining substances were identified by HPLC analysis (HPX-87C column, 80° C., 60 min, 20 μl) at 0 hour, 24 hours, 72 hours, and 120 hours. The concentration of each substance was 1% (w/v) and reaction temperature was 40° C.
Those results which show statistically significant difference under the same experimental conditions were indicated by different alphabets.
The measured results with respect to storage time were analyzed using analysis of variance (ANOVA) as statistical analysis and tukey's multiple range test as post hoc analysis, and statistical significance was set to p<0.05.

Row | Structure (SMILES) | Residual percentage (pH 2, 40° C., 0 hr) | Residual percentage (pH 2, 40° C., 24 hr) | Residual percentage (pH 2, 40° C., 72 hr) | Residual percentage (pH 2, 40° C., 120 hr) | Residual percentage (pH 4, 40° C., 0 hr) | Residual percentage (pH 4, 40° C., 24 hr) | Residual percentage (pH 4, 40° C., 72 hr) | Residual percentage (pH 4, 40° C., 120 hr) | Residual percentage (pH 6, 40° C., 0 hr) | Residual percentage (pH 6, 40° C., 24 hr) | Residual percentage (pH 6, 40° C., 72 hr) | Residual percentage (pH 6, 40° C., 120 hr) | Acid resistance compared with D2 and sucrose (at pH 6 or less) | Residual percentage of D1 relative to that of sucrose (higher than) (pH 2, after 120 hours)
1 | OC[C@H]1O[C@@](CO)(O[C@H]2O[C@H](CO)[C@@H](O)[C@H](O)[C@H]2O)[C@@H](O)[C@@H]1O [Sucrose, reference compound] | 100.0% | 81.2^B % | 51.9^B % | 34.4^B % | 100.0% | 98.1^A % | 95.8^B % | 92.9^B % | 100.0% | 100.0% | 99.9% | 99.58^A* % |  | 
2 | OCC1(O)O[C@H](CO[C@]2(CO)OC[C@@H](O)[C@@H](O)[C@H]2O)[C@@H](O)[C@H]1O (stereo partly drawn) [D1, (2S,3R,4R,5R)-2-(hydroxymethyl)-2-(((2R,3S,4R)-3,4,5-trihydroxy-5-(hydroxymethyl)tetrahydrofuran-2-yl)methoxy)tetrahydro-2H-pyran-3,4,5-triol] | 100.0% | 85.9^A % | 58.2^A % | 44.6^A % | 100.0% | 99.0^A % | 98.8^A % | 97.9^A % | 100.0% | 100.0% | 100.0% | 99.96^A* % | higher acid resistance than that of D2 and sucrose | about 130%
